The subject of one experiment is TFEB. Kind of experiment: Immunoblot of TFEB in OC43-infected BEAS-2B cells. It is filed as cell-based, human. Conditions: for TFEB protein during viral infection: OC43, cotreatment with inhibitors of ubiquitin-proteasome system; for Decline in TFEB protein levels during viral infection: OC43, mTORC1 inhibition (10 nM). Background: In western blotting, separated proteins are transferred to a membrane and probed.

Experiment [1] addresses T1, DCAF7 recombinant protein, P61962.
T1 chain: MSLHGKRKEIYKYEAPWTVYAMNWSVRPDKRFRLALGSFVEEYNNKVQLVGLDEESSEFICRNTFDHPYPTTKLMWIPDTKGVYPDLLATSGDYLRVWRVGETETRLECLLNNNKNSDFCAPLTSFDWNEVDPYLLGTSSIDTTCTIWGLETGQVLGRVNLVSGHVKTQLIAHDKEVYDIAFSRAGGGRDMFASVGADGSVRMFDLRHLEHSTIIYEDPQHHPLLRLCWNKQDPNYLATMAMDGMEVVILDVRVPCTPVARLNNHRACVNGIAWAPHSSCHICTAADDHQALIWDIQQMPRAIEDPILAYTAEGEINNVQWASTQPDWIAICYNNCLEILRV
Kind of experiment: streptavidin pull-down (peptide binding assay), DCAF7 immunoblot densitometry. Conditions: chain shown with the change; n = 3; parent: est. 1.0; read off a plot.

For `NS(=O)(=O)OC[C@H]1C[C@@H](Nc2ccnc3cc(-c4cccc(SC(F)(F)F)c4)nn23)[C@H](O)[C@@H]1O` [TAK-243], the “TFEB protein during viral infection” value in the experiment with TFEB is reported as “substantially preserved”.

With `NS(=O)(=O)OC[C@@H]1C[C@@H](n2ccc3c(N[C@H]4CCc5ccccc54)ncnc32)C[C@@H]1O` [MLN4924], the “TFEB protein during viral infection” value in the experiment with TFEB is listed as “substantially preserved”.

As for `CO[C@H]1C[C@@H]2CC[C@@H](C)[C@@](O)(O2)C(=O)C(=O)N2CCCC[C@H]2C(=O)O[C@H]([C@H](C)C[C@@H]2CC[C@@H](O)[C@H](OC)C2)CC(=O)[C@H](C)/C=C(\C)[C@@H](O)[C@@H](OC)C(=O)[C@H](C)C[C@H](C)/C=C/C=C/C=C/1C` [rapamycin], in the experiment on TFEB, the “Decline in TFEB protein levels during viral infection” value is recorded as “did not rescue”.

On to `CC(C)C[C@H](NC(=O)[C@H](CCc1ccccc1)NC(=O)CN1CCOCC1)C(=O)N[C@@H](Cc1ccccc1)C(=O)N[C@@H](CC(C)C)C(=O)[C@@]1(C)CO1` [carfilzomib], for which the “TFEB protein during viral infection” value with TFEB was “substantially preserved”.

Take `CCC(=O)N1CCN(c2ccc(-n3c(=O)ccc4cnc5ccc(-c6cnc7ccccc7c6)cc5c43)cc2C(F)(F)F)CC1` [Torin1]: in the experiment with TFEB, the “Decline in TFEB protein levels during viral infection” value is “did not rescue”.

As for GNDAPNDPMA [Biotinylated TFEB peptide, region 136 to 145, unmodified sequence (I), P19484 S138D; S142D], the response in experiment [1] is 2.9.

GNAAPNAPMA [Biotinylated TFEB peptide, region 136 to 145, unmodified sequence (I), P19484 S138A; S142A]: in experiment [1], the response is 0.5.

Source of the values: article PMC12136031 (Science Advances, 2025).
